According to US6531610B1 (Abbott Laboratories, priority 1989, dated 2003):

Tested on: HIV-13B in MT4 cells
Experiment: Antiviral activity: inhibition of the cytopathic effect of HIV in MT4 cells
Assay type: cell-based, HIV-1
Details: Human immunodeficiency virus 1, MT4

Q: For `CC(C)CN(Cc1csc(C(C)C)n1)C(=O)N[C@@H](C)C(=O)N[C@@H](Cc1ccccc1)C[C@H](O)[C@H](Cc1ccccc1)NC(=O)OCc1cncs1` [Example 55], which IC50 is on record?
A: 140 to 220 nM

Same assay, conditions: Human immunodeficiency virus 1, MT4; read-out: IC50

Q: For `CC(C)[C@H](NC(=O)OCc1csc(N2CCCC2)n1)C(=O)N[C@@H](Cc1ccccc1)[C@@H](O)C[C@H](Cc1ccccc1)NC(=O)OCc1cncs1` [Example 14, (2S,3S,5S)-2-(N-(N-((2-(1-Pyrrolidinyl)-4-thiazolyl)-methoxycarbonyl)valinyl)amino)-5-(N-((5-thiazolyl)-methoxycarbonyl)amino)-1,6-diphenyl-3-hydroxyhexane], which IC50 is on record?
A: 140 to 220 nM

Q: With `CC(C)[C@H](NC(=O)N(C)Cc1csc(N2CCCC2)n1)C(=O)N[C@@H](Cc1ccccc1)C[C@H](O)[C@H](Cc1ccccc1)NC(=O)OCc1ccno1` [Example 49, (2S,3S,5S)-5-(N-(N-((N-Methyl-N-((2-(1-pyrrolidinyl)-4-thiazolyl)methyl)amino)carbonyl)valinyl)amino)-2-(N-((5-isoxazolyl)methoxycarbonyl)amino)-1,6-diphenyl-3-hydroxyhexane] as the compound, how does the IC50 read?
A: 81 to 130 nM

Q: With `CC(C)[C@H](NC(=O)OCc1csc(N(C)C)n1)C(=O)N[C@@H](Cc1ccccc1)[C@@H](O)C[C@H](Cc1ccccc1)NC(=O)OCc1cncs1` [Example 10, (2S,3S,5S)-2-(N-(N-((2-(N,N-Dimethylamino)-4-thiazolyl)methoxycarbonyl)valinyl)amino)-5-(N-((5-thiazolyl)methoxycarbonyl)amino)-1,6-diphenyl-3-hydroxyhexane] as the compound, how does the IC50 read?
A: 54 to 71 nM

Q: With `CC(C)c1nc(CN(C)C(=O)N[C@H](C(=O)N[C@@H](Cc2ccccc2)C[C@H](O)[C@H](Cc2ccccc2)NC(=O)OCc2cncs2)C(C)C)cs1` [Example 1, (2S,3S,5S)-5-(N-(N-((N-Methyl-N-((2-isopropyl-4-thiazolyl)methyl)amino)carbonyl)valinyl)amino)-2-(N-((5-thiazolyl)methoxycarbonyl)amino)-1,6-diphenyl-3-hydroxyhexane] as the compound, how does the IC50 read?
A: 25 to 40 nM

Q: For `CC(C)c1nc(COC(=O)N[C@H](C(=O)N[C@@H](Cc2ccccc2)C[C@H](O)[C@H](Cc2ccccc2)NC(=O)OCc2cncs2)C(C)C)cs1` [Example 5, (2S,3S,5S)-5-(N-(N-((2-Isopropyl-4-thiazolyl)methoxycarbonyl)valinyl)amino)-2-(N-((5-thiazolyl)methoxycarbonyl)amino)-1,6-diphenyl-3-hydroxyhexane], which IC50 is on record?
A: 3 to 9 nM

Q: Which IC50 does the source give for `CC(C)c1nc(CN(C)C(=O)N[C@@H](C)C(=O)N[C@@H](Cc2ccccc2)C[C@H](O)[C@H](Cc2ccccc2)NC(=O)OCc2cncs2)co1` [Example 56, (2S,3S,5S)-5-(N-(N-((N-Methyl-N-((2-isopropyl-4-oxazolyl)methyl)amino)carbonyl)-L-alaninyl)amino)-2-(N-((5-thiazolyl)methoxycarbonyl)amino)-1,6-diphenyl-3-hydroxyhexane] here?
A: 50 to 67 nM

Q: With `CC(C)c1nc(COC(=O)N[C@@H](C)C(=O)N[C@@H](Cc2ccccc2)C[C@H](O)[C@H](Cc2ccccc2)NC(=O)OCc2cncs2)cs1` [Example 7, (2S,3S,5S)-5-(N-(N-((2-Isopropyl-4-thiazolyl)methoxycarbonyl)alaninyl)amino)-2-(N-((5-thiazolyl)methoxycarbonyl)amino)-1,6-diphenyl-3-hydroxyhexane] as the compound, how does the IC50 read?
A: 76 to 131 nM

Q: For `CCN(Cc1csc(C(C)C)n1)C(=O)N[C@H](C(=O)N[C@@H](Cc1ccccc1)C[C@H](O)[C@H](Cc1ccccc1)NC(=O)OCc1cncs1)C(C)C` [Example 4, (2S,3S,5S)-5-(N-(N-((N-Ethyl-N-((2-isopropyl-4-thiazolyl)methyl)amino)carbonyl)valinyl)amino)-2-(N-((5-thiazolyl)methoxycarbonyl)amino)-1,6-diphenyl-3-hydroxyhexane], which IC50 is on record?
A: 170 to 320 nM

Q: Which IC50 does the source give for `Cc1nc(CN(C)C(=O)N[C@H](C(=O)N[C@@H](Cc2ccccc2)C[C@H](O)[C@H](Cc2ccccc2)NC(=O)OCc2cncs2)C(C)C)co1` [Example 42, (2S,3S,5S)-5-(N-(N-((N-Methyl-N-((2-methyl-4-oxazolyl)methyl)amino)carbonyl)valinyl)amino)-2-(N-((5-thiazolyl)methoxycarbonyl)amino)-1,6-diphenyl-3-hydroxyhexane] here?
A: 73 to 80 nM

Q: For `CC(C)[C@H](NC(=O)OCc1csc(N2CCOCC2)n1)C(=O)N[C@@H](Cc1ccccc1)C[C@H](O)[C@H](Cc1ccccc1)NC(=O)OCc1cncs1` [Example 11, (2S,3S,5S)-5-(N-(N-((2-(4-Morpholinyl)-4-thiazolyl)methoxycarbonyl)valinyl)amino)-2-(N-((5-thiazolyl)methoxycarbonyl)amino)-1,6-diphenyl-3-hydroxyhexane], which IC50 is on record?
A: 17 to 132 nM

Q: For `CC(C)[C@H](NC(=O)OCc1csc(N2CCOCC2)n1)C(=O)N[C@@H](Cc1ccccc1)[C@@H](O)C[C@H](Cc1ccccc1)NC(=O)OCc1cncs1` [Example 12, (2S,3S,5S)-2-(N-(N-((2-(4-Morpholinyl)-4-thiazolyl)-methoxycarbonyl)valinyl)amino)-5-(N-((5-thiazolyl)-methoxycarbonyl)amino)-1,6-diphenyl-3-hydroxyhexane], which IC50 is on record?
A: 53 to 106 nM

Q: Which IC50 does the source give for `CC(C)c1nc(CN(C)C(=O)N[C@H](C(=O)N[C@H](Cc2cncs2)C[C@H](O)[C@H](Cc2ccccc2)NC(=O)OCc2cncs2)C(C)C)cs1` [Example 8, (2S,3S,5S)-5-(N-(N-((N-Methyl-N-((2-isopropyl-4-thiazolyl)methyl)amino)carbonyl)valinyl)amino)-1-phenyl-2-(N-((5-thiazolyl)methoxycarbonyl)amino)-6-(5-thiazolyl)-3-hydroxyhexane] here?
A: 57 to 95 nM

Q: Which IC50 does the source give for `CC(C)c1nc(CN(C)C(=O)N[C@H](C(=O)N[C@@H](Cc2ccccc2)C[C@H](O)[C@H](Cc2ccccc2)NC(=O)OCc2ccno2)C(C)C)co1` [Example 27, (2S,3S,5S)-5-(N-(N-((N-Methyl-N-((2-isopropyl-4-oxazolyl)methyl)amino)carbonyl)valinyl)amino)-2-(N-((5-isoxazolyl)methoxycarbonyl)amino)-1,6-diphenyl-3-hydroxyhexane] here?
A: 11 to 12 nM

Q: With `CCc1nc(CN(C)C(=O)N[C@H](C(=O)N[C@@H](Cc2ccccc2)C[C@H](O)[C@H](Cc2ccccc2)NC(=O)OCc2cncs2)C(C)C)cs1` [Example 53, (2S,3S,5S)-5-(N-(N-((N-Methyl-N-((2-ethyl-4-thiazolyl)methyl)amino)carbonyl)valinyl)amino)-2-(N-((5-thiazolyl)methoxycarbonyl)amino)-1,6-diphenyl-3-hydroxyhexane] as the compound, how does the IC50 read?
A: 32 to 73 nM

Q: With `CC(C)c1nc(CCOC(=O)N[C@H](C(=O)N[C@@H](Cc2ccccc2)[C@@H](O)C[C@H](Cc2ccccc2)NC(=O)OCc2cncs2)C(C)C)cs1` [Example 48, (2S,3S,5S)-2-(N-(N-((2-(2-Isopropyl-4-thiazolyl)ethoxy)carbonyl)valinyl)amino)-5-(N-((5-thiazolyl)methoxycarbonyl)amino)-1,6-diphenyl-3-hydroxyhexane] as the compound, how does the IC50 read?
A: 90 to 110 nM

Q: With `CCC(CC)c1nc(CN(C)C(=O)N[C@H](C(=O)N[C@@H](Cc2ccccc2)C[C@H](O)[C@H](Cc2ccccc2)NC(=O)OCc2cncs2)C(C)C)cs1` [Example 44, (2S,3S,5S)-5-(N-(N-((N-Methyl-N-((2-(3-pentyl)-4-thiazolyl)methyl)amino)carbonyl)valinyl)amino)-2-(N-((5-thiazolyl)methoxycarbonyl)amino)-1,6-diphenyl-3-hydroxyhexane] as the compound, how does the IC50 read?
A: 120 to 160 nM

Q: With `CC(C)c1nc(CN(C)C(=O)N[C@H](C(=O)N[C@@H](Cc2ccccc2)C[C@H](O)[C@H](Cc2ccccc2)NC(=O)OCc2ccno2)C(C)C)cs1` [Example 26, (2S,3S,5S)-5-(N-(N-((N-Methyl-N-((2-isopropyl-4-thiazolyl)methyl)amino)carbonyl)valinyl)amino)-2-(N-((5-isoxazolyl)methoxycarbonyl)amino)-1,6-diphenyl-3-hydroxyhexane] as the compound, how does the IC50 read?
A: 7 to 11 nM

Q: For `Cc1ncc(COC(=O)N[C@@H](Cc2ccccc2)C[C@H](O)[C@H](Cc2ccccc2)NC(=O)[C@@H](NC(=O)N(C)Cc2csc(C(C)C)n2)C(C)C)s1` [Example 39, (2S,3S,5S)-2-(N-(N-((N-Methyl-N-((2-isopropyl-4-thiazolyl)methyl)amino)carbonyl)valinyl)amino)-5-(N-((2-methyl-5-thiazolyl)methoxycarbonyl)amino)-1,6-diphenyl-3-hydroxyhexane], which IC50 is on record?
A: 73 to 77 nM

Q: Which IC50 does the source give for `CC(C)c1nc(CCN(C)C(=O)N[C@H](C(=O)N[C@@H](Cc2ccccc2)C[C@H](O)[C@H](Cc2ccccc2)NC(=O)OCc2cncs2)C(C)C)cs1` [Example 61, (2S,3S,5S)-5-(N-(N-((N-Methyl-N-(2-(2-isopropyl-4-thiazolyl)ethyl)amino)carbonyl)valinyl)amino)-2-(N-((5-thiazolyl)methoxycarbonyl)amino)-1,6-diphenyl-3-hydroxyhexane] here?
A: 150 to 220 nM

Q: For `CC(C)c1nc(CN(C)C(=O)N[C@H](C(=O)N[C@@H](Cc2ccccc2)C[C@H](O)[C@H](Cc2ccccc2)NC(=O)OCc2cncs2)C(C)C)co1` [Example 18, (2S,3S,5S)-5-(N-(N-((N-Methyl-N-((2-isopropyl-4-oxazolyl)methyl)amino)carbonyl)valinyl)amino)-2-(N-((5-thiazolyl)methoxycarbonyl)amino)-1,6-diphenyl-3-hydroxyhexane], which IC50 is on record?
A: 39 to 46 nM

Same assay, conditions: concentration giving 50% inhibition of the cytopathic effect of HIV; HIV-13B in MT4 cells; read-out: IC50

Q: Which IC50 does the source give for `CC(C)[C@H](NC(=O)N(C)Cc1csc(C2CC2)n1)C(=O)N[C@@H](Cc1ccccc1)C[C@H](O)[C@H](Cc1ccccc1)NC(=O)OCc1cncs1` [Example 51] here?
A: 45 to 49 nM

Q: With `CC(C)c1nc(CN(C)C(=O)N[C@@H](C)C(=O)N[C@@H](Cc2ccccc2)C[C@H](O)[C@H](Cc2ccccc2)NC(=O)OCc2cncs2)cs1` [Example 3, (2S.3S.5S)-5-(N-(N-((N-Methyl-N-((2-isopropyl-4-thiazolyl)methyl)amino)carbonyl)alaninyl)amino)-2-(N-((5-thiazolyl)methoxycarbonyl)amino)-1,6-diphenyl-3-hydroxyhexane] as the compound, how does the IC50 read?
A: 41 to 75 nM

Tested on: not listed separately
Experiment: in vitro
Assay type: cell-based
Details: human
Excerpt: The anti-HIV activity of the compounds of the invention can be determined in MT4 cells according to the procedure of Kempf, et. al. (Antimicrob. Agents Chemother. 1991, 35, 2209).

Q: Which CC50 does the source give for `CC(C)[C@H](NC(=O)OCc1csc(N2CCCC2)n1)C(=O)N[C@@H](Cc1ccccc1)[C@@H](O)C[C@H](Cc1ccccc1)NC(=O)OCc1cncs1` [Example 14, (2S,3S,5S)-2-(N-(N-((2-(1-Pyrrolidinyl)-4-thiazolyl)-methoxycarbonyl)valinyl)amino)-5-(N-((5-thiazolyl)-methoxycarbonyl)amino)-1,6-diphenyl-3-hydroxyhexane] here?
A: > 100000 nM

Q: With `CC(C)[C@H](NC(=O)N(C)Cc1csc(N2CCCC2)n1)C(=O)N[C@@H](Cc1ccccc1)C[C@H](O)[C@H](Cc1ccccc1)NC(=O)OCc1ccno1` [Example 49, (2S,3S,5S)-5-(N-(N-((N-Methyl-N-((2-(1-pyrrolidinyl)-4-thiazolyl)methyl)amino)carbonyl)valinyl)amino)-2-(N-((5-isoxazolyl)methoxycarbonyl)amino)-1,6-diphenyl-3-hydroxyhexane] as the compound, how does the CC50 read?
A: 38000 nM

Q: For `CC(C)c1nc(CN(C)C(=O)N[C@H](C(=O)N[C@H](Cc2cncs2)C[C@H](O)[C@H](Cc2ccccc2)NC(=O)OCc2cncs2)C(C)C)cs1` [Example 8, (2S,3S,5S)-5-(N-(N-((N-Methyl-N-((2-isopropyl-4-thiazolyl)methyl)amino)carbonyl)valinyl)amino)-1-phenyl-2-(N-((5-thiazolyl)methoxycarbonyl)amino)-6-(5-thiazolyl)-3-hydroxyhexane], which CC50 is on record?
A: 97000 nM

Q: For `CC(C)c1nc(CCOC(=O)N[C@H](C(=O)N[C@@H](Cc2ccccc2)[C@@H](O)C[C@H](Cc2ccccc2)NC(=O)OCc2cncs2)C(C)C)cs1` [Example 48, (2S,3S,5S)-2-(N-(N-((2-(2-Isopropyl-4-thiazolyl)ethoxy)carbonyl)valinyl)amino)-5-(N-((5-thiazolyl)methoxycarbonyl)amino)-1,6-diphenyl-3-hydroxyhexane], which CC50 is on record?
A: > 100000 nM
